Target: T1, α2A receptor (Oryctolagus cuniculus, UniProt Q5ZQK3)
T1 construct: The prostatic ends of the vas deferens (2-3 cm) were removed from albino rabbits; from tissue; host or cells: rabbit vas deferens (prostatic end)
T1 sequence (Q5ZQK3 1-451): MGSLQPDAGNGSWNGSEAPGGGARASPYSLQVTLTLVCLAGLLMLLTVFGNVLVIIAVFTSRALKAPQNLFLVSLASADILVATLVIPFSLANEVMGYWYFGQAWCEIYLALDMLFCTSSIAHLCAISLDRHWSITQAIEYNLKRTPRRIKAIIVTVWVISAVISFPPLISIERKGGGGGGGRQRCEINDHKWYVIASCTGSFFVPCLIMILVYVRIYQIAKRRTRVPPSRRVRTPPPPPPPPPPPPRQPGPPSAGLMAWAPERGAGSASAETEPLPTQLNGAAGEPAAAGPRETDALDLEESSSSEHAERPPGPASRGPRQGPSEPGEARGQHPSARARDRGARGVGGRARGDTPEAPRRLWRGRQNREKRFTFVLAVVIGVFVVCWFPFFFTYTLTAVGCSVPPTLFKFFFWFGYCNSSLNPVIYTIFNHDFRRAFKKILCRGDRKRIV
Experiment: Vas deferens functional assay: reduction of electrically evoked contractions
Type: cell-based
Conditions: field-stimulated isolated rabbit vas deferens, 50% reduction in peak height
Method: Vas Deferens: The prostatic ends of the vas deferens (2-3 cm) were removed from albino rabbits and mounted between platinum electrodes in 9 mL organ baths containing Krebs-Hensleit solution of the following composition (mM): NaCl 119, KCl 4.7, MgSO4 1.5, KH2PO4 1.2. CaCl2 2.5, NaHCO3 25 and glucose 11. This solution was maintained at 35° C and bubbled with 95% O2 and 5% CO2. The tissue was equilibrated at 0.5 g tension for 30 minutes. The vas deferens strips were then field stimulated at 0.1 Hz, 2 msec, 90 mA using a square wave stimulator (World Precision Instruments A310 Accupulser / A385 Stimulus Isolater), or a Grass S48 stimulator at 0.1 Hz, 2 msec, 70 volts. After 30 minutes of electrical stimulation, cumulative concentration-response curves in 0.25 log units were obtained with a 4 minute contact time for each concentration. Each tissue was used to evaluate only one drug. Tissue contractions produced by the field stimulation were measured isometrically using Grass FT-.03 force-displacement transducers and recorded on a Grass Model 7D physiograph. The reduction in electrically-evoked peak height by the drugs was measured and expressed as a percentage of the pre-drug peak height.
Representative compounds of the present invention, and comparative examples, were tested according to the procedures given above. The receptor binding studies and […] are measures of the affinity of a compound for a particular receptor. The vas deferens assay is a measure of the degree of activation of the α2A affected when a compound binds to that receptor.

SMILES | EC50 [nM]
Cc1c(Nc2ncc[nH]2)ccc2c1OCCO2 | 1.61
Cc1c(Nc2ncc[nH]2)ccc2nccnc12 | 35.3

The remaining lines, values ahead:

EC50 [nM] | SMILES
86.3 | Clc1cccc(Cl)c1Nc1ncc[nH]1
56200 | c1ccc(Nc2ncc[nH]2)cc1
49.4 | Brc1c(Nc2ncc[nH]2)ccc2nccnc12
